In patent US20230365563A1, “QUINAZOLINE COMPOUND AND APPLICATION THEREOF” (SHANGHAI PHARMACEUTICALS HOLDING CO., LTD., priority 2020, published 2023) one finds IC50 data, which are given here for nine molecules.

Structures can show the parent of a compound that is named as a salt.

T1 sequence (P01116 1-188 isoform P01116-2 G12D): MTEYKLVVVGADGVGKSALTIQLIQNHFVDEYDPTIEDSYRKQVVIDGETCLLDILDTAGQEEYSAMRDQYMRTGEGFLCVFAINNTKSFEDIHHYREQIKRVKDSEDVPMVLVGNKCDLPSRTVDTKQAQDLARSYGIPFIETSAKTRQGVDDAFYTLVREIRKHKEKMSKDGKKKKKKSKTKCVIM

The test addresses T1, KRAS-G12D and SOS1 (Homo sapiens, UniProt P01116, G12D).
T1 construct: purchased
Description: Inhibition of KRAS-G12D/SOS1 binding (Cisbio binding kit, 665/615 ratio), Effect Embodiment A. To be noted: read-out: GTP-KRAS-G12D:SOS1 IC50. In outline: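 Compounds underwent 3-fold dilution from their storage solutions (11 points), were transferred to assay wells in duplicate with DMSO held at 1% final, and were briefly centrifuged.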
The IC50 is the midpoint of a concentration-inhibition curve. `CN1CCC1CCOc1nc(N2CC3CCC(C2)N3)c2cc(Cl)c(-c3cc(O)cc4ccccc34)c(F)c2n1` (single isomer, unassigned) [Compound 112b, 4-((S or R)-4-((1R,5S)-3,8-diazabicyclo[3.2.1]octan-3-yl)-6-chloro-8-fluoro-2-(2-((R or S)-1-methylazetidin-2-yl)ethoxy)quinazolin-7-yl)naphthalen-2-ol carboxylate]: the IC50 turned out to be 120 nM.

On to `CN(C)C1CN(c2nc(N3CC4CCC(C3)N4C(=N)N)c3cc(Cl)c(-c4cc(O)cc5ccccc45)c(F)c3n2)C1` (single isomer, unassigned) [Compound 85, (1R,5S)-3-((S or R)-6-chloro-2-(3-(dimethylamino)azetidin-1-yl)-8-fluoro-7-(3-hydroxynaphthalen-1-yl)quinazolin-4-yl)-3,8-diazabicyclo[3.2.1]octane-8-carboximidamide diformate], for which the IC50 was 4790 nM.

For the molecule `CN(C)C1CN(c2nc(N3C[C@H]4CC[C@@H]3CN4)c3cc(Cl)c(-c4cc(O)cc5ccccc45)c(F)c3n2)C1` (single isomer, unassigned) [Compound 1a, (R or S)-4-(4-((1R,4R)-2,5-diazabicyclo[2.2.2]octan-2-yl)-6-chloro-2-(3-(dimethylamino)azetidin-1-yl)-8-fluoroquinazolin-7-yl)naphthalen-2-ol], the IC50 stood at 6440 nM.

`CC(=N)N1C2CCC1CN(c1nc(N3CC(N(C)C)C3)nc3c(F)c(-c4cc(O)cc5ccccc45)c(Cl)cc13)C2` (single isomer, unassigned) [Compound 87, 4-((S or R)-6-chloro-2-(3-(dimethylamino)azetidin-1-yl)-8-fluoro-4-((1R,5S)-8-(1-iminoethyl)-3,8-diazabicyclo[3.2.1]octan-3-yl)quinazolin-7-yl)naphthalen-2-ol trifluoroacetate]: the IC50 was 23300 nM.

For `CN(CCN)c1nc(N2CC(N(C)C)C2)nc2c(F)c(-c3cc(O)cc4ccccc34)c(Cl)cc12` (single isomer, unassigned) [Compound 15a, (R or S)-4-(4((2-aminoethyl) (methyl)-amino)-6-chloro-2-(3-(dimethylamino)azetidin-1-yl)-8-fluoroquinazolin-7-yl)naphthalen-2-ol], the IC50 was 1350 nM.

With `CN(C)CCN(C)c1nc(N2CC(N(C)C)C2)nc2c(F)c(-c3cc(O)cc4ccccc34)c(Cl)cc12` (single isomer, unassigned) [Compound 17a, (R or S)-4-(6-chloro-2-(3-(dimethylamino)azetidin-1-yl)-4-((2-(dimethylamino)ethyl)(methyl)amino)-8-fluoro-quinazolin-7-yl)naphthalen-2-ol], the IC50 was determined as 5810 nM.

For the molecule `CCc1c(F)ccc2cc(O)cc(-c3c(F)cc4c(N5CC6CCC(C5)N6)nc(OCCCN5C[C@@H](C)O[C@@H](C)C5)nc4c3F)c12` (single isomer, unassigned) [Compound 250b, (R or S)-4-(4-((1R,5S)-3,8-diazacyclo[3.2.1]octan-3-yl)-2-(3-((2R,6S)-2,6-dimethylmorpholinyl)propoxy)-6,8-difluoroquinazolin-7-yl)-5-ethyl-6-fluoronaphthalen-2-ol formate], the IC50 was 1630 nM.

In the case of `CN(C)C1CN(c2nc(N3C[C@H]4CNC[C@H]4C3)c3cc(Cl)c(-c4cc(O)cc5ccccc45)c(F)c3n2)C1` (single isomer, unassigned) [Compound 13a, (R or S)-4-(6-chloro-2-(3-(dimethylamino)azetidin-1-yl)-8-fluoro-4-((3aR,6aS)-hexahydro-pyrrolo[3,4-c]pyrrol-2 (1H)-yl)quinazolin-7-yl)naphthalen-2-ol], the IC50 is 2240 nM.

Take `CN1CCOC[C@H]1COc1nc(N2CC3CCC(C2)N3)c2cc(Cl)c(-c3cc(O)cc4ccccc34)c(F)c2n1` (single isomer, unassigned) [Compound 122, 4-((S or R)-4-((1R,5S)-3,8-diazabicyclo[3.2.1]octan-3-yl)-6-chloro-8-fluoro-2-((S)-4-methylmorpholin-3-yl)methoxy)quinazolin-7-yl)naphthalen-2-ol dihydrochloride]: the IC50 came out at 219 nM.
